Test results as given in patent publication US12509373B2, “Composition and method for the removal of biofilm” (LANXESS Corporation, priority 2020, dated 2025).

Tests used:
[1] = tested on: Desulfovibrio vulgaris biofilm; assay: Biofilm removal, Crystal Violet Assay (anaerobic, 24 h treatment of pre-formed biofilm); type: cell-based
Experimental: A lyophilized D. vulgaris pure culture received from ATTCC was resuspended in 500 ul of MB 1249. Aseptically, the content was transferred to a 5¬mL tube of MB1249 medium. The culture was incubated in an anaerobic chamber at 30° C. for 72 hrs. Subsequently, a stock culture with a final concentration of 25% glycerol was prepared by adding equal volumes of culture and 50% glycerol. 1 ml of culture was then transferred to 2-ml cryogenic vials and stored AT-80c. The purity of the stock culture was evaluated through PCR, by amplifying the 16S rDNA region, and thus, it was verified that the original ATCC sample was a pure culture.
A 10% culture was prepared by taking 1 mL of stock culture and adding it to 9 mL of MB1249, then the culture was placed into a 30° C. side incubator within the chamber and incubated for 72 hours. After 72 hours of incubation, the 10-ml D. vulgaris culture was added to 40 ml of MB1249 medium and incubated for 48 hours. After the incubation time, the optical density of the culture was determined by taking 100 μL of culture and adding it to 900 μL of MB1249 in a cuvette. Another cuvette was filled with 1 mL of MB1249 for a blank. Then, each of culture cuvettes were read and their optical density (O.D.) was recorded by using the Thermofisher Spectronic 200 Spectrophotometer at 620 nm. Using a C1V1=C2V2 calculation and the optical density, the final concentration of culture added to the 96 well plates was ˜0.1 O.D. Then, NUNC Round bottom 96 well plates were filled with culture and anaerobic PBS+10% MB1249. The plates were placed into the side incubator of the anaerobic chamber at 30° C. for 24 hours to form biofilm.
After 24 hours of incubation at 30° C., all plates were removed from the incubator and the volume from each well was taken out with a multi-channel pipette. Then, the wells were re-filled with PBS+10% MB1249 and treatments.
The sugar analogues used in the treatment were α-Methyl D-Mannoside (αMM) and 2-Deoxy-D-Glucose (2DG). Both αMM and 2DG were purchased from Sigma. Stocks were prepared (W/V) by weighing sugar and adding anaerobic water inside the anaerobic chamber. The Glutaraldehyde, AQUCAR™ GA50 (“Glutaraldehyde”), was prepared outside of the chamber (V/V) as a safety measure. Each of the components were added at their respective concentrations for a final volume of 200 ul per well. In Table 3, the concentrations used for the synergy experiments are listed. Each experiment was done with at least six replicates for different treatments and at least 8 replicates for non-treatment controls.
Plates were then sealed with a titer-top and placed into anaerobic boxes with a gas pack. Then, incubated in an aerobic shaking incubator, 30° C. at 115 RPM. After 24 hours, the plates were processed using a Crystal Violet Assay.
After 24 hours of treatment, all the treatment solution was gently removed from plates using a multi-channel pipette. Then, 250 μL of DI water was re-filled into the wells. This step was then repeated so the plates were each rinsed twice. If residual DI water was in plates, they were inverted and gently patted onto a thick paper towel. Then, the plates were air dried in a ventilated hood.
To fix the biofilm in the wells, 250 μL per well of methanol was used, waiting time 5 minutes. This methanol was then removed and allowed to air dry. […] Then, the plates were placed into the Biotek Cytation 5, and the optical density (OD) was read at 600 nm. […]

[2] = tested on: anaerobic D. vulgaris biofilms; conditions: high levels of sugar analogs needed; WO2019/018087; cited from earlier work

Row | Structure (SMILES) | % OD compared to no-treatment control ([1]; standalone, 2000 ppm) [%] | dispersal of anaerobic D. vulgaris biofilms [2] | % OD compared to no-treatment control ([1]; Glutaraldehyde 25 ppm alone (2DG 0 ppm), 2DG combination experiment) [%] | % OD compared to no-treatment control ([1]; Glutaraldehyde 25 ppm alone (αMM 0 ppm), αMM combination experiment) [%] | % OD compared to no-treatment control ([1]; standalone, 2500 ppm) [%]
1 | O=CC[C@@H](O)[C@H](O)[C@H](O)CO [2DG, 2-Deoxy-D-Glucose] | 101.7 | disperse anaerobic D. vulgaris biofilms |  |  | 
2 | CO[C@H]1O[C@H](CO)[C@@H](O)[C@H](O)[C@@H]1O [αMM, α-Methyl D-Mannoside] | 100.3 | disperse anaerobic D. vulgaris biofilms |  |  | 
3 | O=CCCCC=O [Glutaraldehyde] |  |  | 92.7 | 99.3 | 97.4
